Literature values as cited in PubChem BioAssay AID1259409 (Chemical Carcinogenesis Research Information System (CCRIS), 2018).
“And” between values parts separate entries of the source, which are not always exact repeats. Equal entries are not always repeated.

System: rodent chemically induced tumor inhibition, incidence and multiplicity
Assay: CCRIS tumor inhibitor studies
Settings: Carcinogen: NONE USED, Route [Inhibitor]: ORAL, Promoter: NONE USED

CC(N)Cc1ccccc1 (stereo not given)
tumour outcome (control, treated, inhibition, significance) (Dose [Inhibitor]: 0, 20 PPM IN FEED FOR 103 WK (STUDY DURATION: 2 YR), Species: MOUSE, Strain/Sex: B6C3F1/FEMALE, Target Tissue: Type of Lesion: HARDERIAN GLAND: ADENOMA): 5/50 (10%), 2/50 (4%), 60%, not calculated
tumour outcome (control, treated, inhibition, significance) (Dose [Inhibitor]: 0, 20 PPM IN FEED FOR 103 WK (STUDY DURATION: 2 YR), Species: MOUSE, Strain/Sex: B6C3F1/FEMALE, Target Tissue: Type of Lesion: LIVER: ADENOMA): 5/50 (10%), 1/50 (2%), 80%, not calculated
tumour outcome (control, treated, inhibition, significance) (Dose [Inhibitor]: 0, 20 PPM IN FEED FOR 103 WK (STUDY DURATION: 2 YR), Species: MOUSE, Strain/Sex: B6C3F1/FEMALE, Target Tissue: Type of Lesion: LUNG: ADENOMA OR CARCINOMA): 8/50 (16%), 6/50 (12%), 25%, not calculated
tumour outcome (control, treated, inhibition, significance) (Dose [Inhibitor]: 0, 20 PPM IN FEED FOR 103 WK (STUDY DURATION: 2 YR), Species: MOUSE, Strain/Sex: B6C3F1/FEMALE, Target Tissue: Type of Lesion: LUNG: ADENOMA): 7/50 (14%), 4/50 (8%), 43%, not calculated
tumour outcome (control, treated, inhibition, significance) (Dose [Inhibitor]: 0, 20 PPM IN FEED FOR 103 WK (STUDY DURATION: 2 YR), Species: MOUSE, Strain/Sex: B6C3F1/MALE, Target Tissue: Type of Lesion: HARDERIAN GLAND: ADENOMA): 4/50 (8%), 2/50 (4%), 50%, not calculated
tumour outcome (control, treated, inhibition, significance) (Dose [Inhibitor]: 0, 20 PPM IN FEED FOR 103 WK (STUDY DURATION: 2 YR), Species: MOUSE, Strain/Sex: B6C3F1/MALE, Target Tissue: Type of Lesion: LIVER: ADENOMA OR CARCINOMA): 14/50 (28%), 12/50 (24%), 15%, not calculated
tumour outcome (control, treated, inhibition, significance) (Dose [Inhibitor]: 0, 20 PPM IN FEED FOR 103 WK (STUDY DURATION: 2 YR), Species: MOUSE, Strain/Sex: B6C3F1/MALE, Target Tissue: Type of Lesion: LIVER: ADENOMA): 10/50 (20%), 7/50 (14%), 30%, not calculated
tumour outcome (control, treated, inhibition, significance) (Dose [Inhibitor]: 0, 20 PPM IN FEED FOR 103 WK (STUDY DURATION: 2 YR), Species: MOUSE, Strain/Sex: B6C3F1/MALE, Target Tissue: Type of Lesion: LIVER: CARCINOMA): 4/50 (8%), 6/50 (12%), -50%, not calculated
tumour outcome (control, treated, inhibition, significance) (Dose [Inhibitor]: 0, 20 PPM IN FEED FOR 103 WK (STUDY DURATION: 2 YR), Species: MOUSE, Strain/Sex: B6C3F1/MALE, Target Tissue: Type of Lesion: LUNG: ADENOMA): 6/50 (12%), 2/50 (4%), 67%, not calculated
tumour outcome (control, treated, inhibition, significance) (Dose [Inhibitor]: 0, 20 PPM IN FEED FOR 103 WK (STUDY DURATION: 2 YR), Species: RAT, Strain/Sex: F344/FEMALE, Target Tissue: Type of Lesion: ANTERIOR PITUITARY GLAND: ADENOMA): 3/50 (62%), 24/48 (50%), 19%, not calculated
tumour outcome (control, treated, inhibition, significance) (Dose [Inhibitor]: 0, 20 PPM IN FEED FOR 103 WK (STUDY DURATION: 2 YR), Species: RAT, Strain/Sex: F344/FEMALE, Target Tissue: Type of Lesion: MAMMARY GLAND: FIBROADENOMA): 21/50 (42%), 11/50 (22%), 48%, not calculated
tumour outcome (control, treated, inhibition, significance) (Dose [Inhibitor]: 0, 20 PPM IN FEED FOR 103 WK (STUDY DURATION: 2 YR), Species: RAT, Strain/Sex: F344/FEMALE, Target Tissue: Type of Lesion: UTERUS: ENDOMETRIAL STROMA POLYP): 10/50 (20%), 6/50 (12%), 40%, not calculated
tumour outcome (control, treated, inhibition, significance) (Dose [Inhibitor]: 0, 20 PPM IN FEED FOR 103 WK (STUDY DURATION: 2 YR), Species: RAT, Strain/Sex: F344/MALE, Target Tissue: Type of Lesion: ADRENAL GLAND: PHEOCHROMOCYTOMA): 23/49 (47%), 15/44 (34%), 28%, not calculated
tumour outcome (control, treated, inhibition, significance) (Dose [Inhibitor]: 0, 20 PPM IN FEED FOR 103 WK (STUDY DURATION: 2 YR), Species: RAT, Strain/Sex: F344/MALE, Target Tissue: Type of Lesion: ANTERIOR PITUITARY GLAND: ADENOMA): 15/49 (31%), 15/48 (31%), 0%, not significant
tumour outcome (control, treated, inhibition, significance) (Dose [Inhibitor]: 0, 100 PPM IN FEED FOR 103 WK (STUDY DURATION: 2 YR), Species: MOUSE, Strain/Sex: B6C3F1/FEMALE, Target Tissue: Type of Lesion: ANTERIOR PITUITARY GLAND: ADENOMA): 12/49 (24%), 6/49 (12%), 50%, not calculated and 12/49 (24%), 1/46 (2%), 92%, p<0.01
tumour outcome (control, treated, inhibition, significance) (Dose [Inhibitor]: 0, 100 PPM IN FEED FOR 103 WK (STUDY DURATION: 2 YR), Species: MOUSE, Strain/Sex: B6C3F1/FEMALE, Target Tissue: Type of Lesion: HARDERIAN GLAND: ADENOMA): 5/50 (10%), 0/47 (0%), 100%, p<0.05
tumour outcome (control, treated, inhibition, significance) (Dose [Inhibitor]: 0, 100 PPM IN FEED FOR 103 WK (STUDY DURATION: 2 YR), Species: MOUSE, Strain/Sex: B6C3F1/FEMALE, Target Tissue: Type of Lesion: LUNG: ADENOMA OR CARCINOMA): 8/50 (16%), 1/47 (2%), 88%, p<0.01
tumour outcome (control, treated, inhibition, significance) (Dose [Inhibitor]: 0, 100 PPM IN FEED FOR 103 WK (STUDY DURATION: 2 YR), Species: MOUSE, Strain/Sex: B6C3F1/FEMALE, Target Tissue: Type of Lesion: LUNG: ADENOMA): 7/50 (14%), 1/47 (2%), 86%, p<0.05
tumour outcome (control, treated, inhibition, significance) (Dose [Inhibitor]: 0, 100 PPM IN FEED FOR 103 WK (STUDY DURATION: 2 YR), Species: MOUSE, Strain/Sex: B6C3F1/MALE, Target Tissue: Type of Lesion: LIVER: ADENOMA OR CARCINOMA): 14/50 (28%), 2/50 (4%), 86%, p<0.01
tumour outcome (control, treated, inhibition, significance) (Dose [Inhibitor]: 0, 100 PPM IN FEED FOR 103 WK (STUDY DURATION: 2 YR), Species: MOUSE, Strain/Sex: B6C3F1/MALE, Target Tissue: Type of Lesion: LIVER: ADENOMA): 10/50 (20%), 1/50 (2%), 90%, p<0.01
tumour outcome (control, treated, inhibition, significance) (Dose [Inhibitor]: 0, 100 PPM IN FEED FOR 103 WK (STUDY DURATION: 2 YR), Species: MOUSE, Strain/Sex: B6C3F1/MALE, Target Tissue: Type of Lesion: LIVER: CARCINOMA): 4/50 (8%), 1/50 (2%), 75%, not calculated
tumour outcome (control, treated, inhibition, significance) (Dose [Inhibitor]: 0, 100 PPM IN FEED FOR 103 WK (STUDY DURATION: 2 YR), Species: MOUSE, Strain/Sex: B6C3F1/MALE, Target Tissue: Type of Lesion: LUNG: ADENOMA): 6/50 (12%), 3/50 (6%), 50%, not calculated
tumour outcome (control, treated, inhibition, significance) (Dose [Inhibitor]: 0, 100 PPM IN FEED FOR 103 WK (STUDY DURATION: 2 YR), Species: RAT, Strain/Sex: F344/FEMALE, Target Tissue: Type of Lesion: ANTERIOR PITUITARY GLAND: ADENOMA): 31/50 (62%), 19/50 (38%), 39%, p<0.05
tumour outcome (control, treated, inhibition, significance) (Dose [Inhibitor]: 0, 100 PPM IN FEED FOR 103 WK (STUDY DURATION: 2 YR), Species: RAT, Strain/Sex: F344/FEMALE, Target Tissue: Type of Lesion: MAMMARY GLAND: FIBROADENOMA): 21/50 (42%), 2/50 (4%), 90%, p<0.01
tumour outcome (control, treated, inhibition, significance) (Dose [Inhibitor]: 0, 100 PPM IN FEED FOR 103 WK (STUDY DURATION: 2 YR), Species: RAT, Strain/Sex: F344/FEMALE, Target Tissue: Type of Lesion: UTERUS: ENDOMETRIAL STROMA POLYP): 10/50 (20%), 3/50 (6%), 70%, p<0.05
tumour outcome (control, treated, inhibition, significance) (Dose [Inhibitor]: 0, 100 PPM IN FEED FOR 103 WK (STUDY DURATION: 2 YR), Species: RAT, Strain/Sex: F344/MALE, Target Tissue: Type of Lesion: ADRENAL GLAND: PHEOCHROMOCYTOMA): 23/49 (47%), 7/50 (14%), 70%, p<0.01
tumour outcome (control, treated, inhibition, significance) (Dose [Inhibitor]: 0, 100 PPM IN FEED FOR 103 WK (STUDY DURATION: 2 YR), Species: RAT, Strain/Sex: F344/MALE, Target Tissue: Type of Lesion: ANTERIOR PITUITARY GLAND: ADENOMA): 15/49 (31%), 9/49 (18%), 42%, not calculated
tumour outcome (control, treated, inhibition, significance) (Dose [Inhibitor]: 0, 100 PPM IN FEED FOR 103 WK (STUDY DURATION; 2 YR), Dose [Inhibitor]: 0, 100 PPM IN FEED FOR 103 WK (STUDY DURATION; 2 YR), Species: MOUSE, Strain/Sex: B6C3F1/MALE, Target Tissue: Type of Lesion: HARDERIAN GLAND: ADENOMA): 4/50 (8%), 0/50 (0%), 100%, not calculated
tumour outcome (control, treated, inhibition, significance) (Dose [Inhibitor]: O, 20 PPM IN FEED FOR 103 WK (STUDY DURATION: 2 YR), Species: MOUSE, Strain/Sex: B6C3F1/MALE, Target Tissue: Type of Lesion: LUNG: ADENOMA OR CARCINOMA): 8/50 (16%), 3/50 (6%), 63%, not calculated
tumour outcome (control, treated, inhibition, significance) (Dose [Inhibitor]: O, 100 PPM IN FEED FOR 103 WK (STUDY DURATION: 2 YR), Species: MOUSE, Strain/Sex: B6C3F1/MALE, Target Tissue: Type of Lesion: LUNG: ADENOMA OR CARCINOMA): 8/50 (16%), 4/50 (8%), 50%, not calculated
